For 69 molecules, glass transition temperature results are on record in the PolyMetriX glass transition set.

Molecules are shown by their SMILES. ± gives the standard deviation of the reports.

In turn, `*/C=C/C(C)C(*)C(=O)OC` (repeat unit) showed a glass transition temperature of 53.00 °C.

As for `*/C=C/C(C)C(*)C(=O)OCCCCCCN(C)c1ccc(N(C)C)cc1` (repeat unit), the glass transition temperature worked out at 2.00 °C.

In the case of `*/C=C/C(C*)OC` (repeat unit), the glass transition temperature was -10.50 °C.

Consider `*/C=C/C1CC(*)C(C#N)(C[Si](C)(C)O[Si](C)(C)C)C1` (repeat unit), for which the glass transition temperature was 68.00 °C.

`*/C=C/C1CC(*)C(C#N)([Si](C)(C)O[Si](C)(C)C)C1` (repeat unit) displayed a glass transition temperature of 88.00 °C.

The molecule `*/C=C/C1CC(*)C(C#N)([Si](C)(C)[Si](C)(C)C)C1` (repeat unit) showed a glass transition temperature of 120.00 °C.

In turn, `*/C=C/C1CC(*)C(C(=O)OC)C1` (repeat unit) gave a glass transition temperature of 65.00 °C.

On to `*/C=C/C1CC(*)C(C(=O)OCCNC(C)(C)C)C1` (repeat unit), for which the glass transition temperature is 29.00 °C.

In turn, `*/C=C/C1CC(*)C(C(=O)Oc2ccccc2)C1` (repeat unit) showed a glass transition temperature of 72.60 °C.

`*/C=C/C1CC(*)C(C2CC=CCC2)C1` (repeat unit) registered a glass transition temperature of 105.00 °C.

`*/C=C/C1CC(*)C([Si](C)(C)C[Si](C)(C)C)C1` (repeat unit) came in with a glass transition temperature of 24.00 °C.

With `*/C=C/C1CC(*)C2C(=O)N(CCC)C(=O)C12` (repeat unit), the glass transition temperature was found to be 139.00 °C.

For `*/C=C/C1CC(*)C2C(=O)N(CCCCCCC)C(=O)C12` (repeat unit), the glass transition temperature amounted to 59.00 °C.

Turning to `*/C=C/C1CC(*)C2C(=O)N(CCCCCCCCCCCC)C(=O)C12` (repeat unit), the glass transition temperature was determined as 50.00 °C.

`*/C=C/C1CC(*)C2C(=O)N(c3ccccc3C)C(=O)C12` (repeat unit) came in with a glass transition temperature of 248.00 °C.

In turn, `*/C=C/C1CC(*)C2CC=CC12` (repeat unit) showed a glass transition temperature of 53.00 °C.

Take `*/C=C/c1cc(OCC(CC)CCCC)c(*)cc1-c1ccc(N(c2ccc(OC)cc2)c2ccc(OC)cc2)cc1` (repeat unit): the glass transition temperature was 163.00 °C.

With `*/C=C/c1cc(OCCCCCC)c(*)cc1OC` (repeat unit), the glass transition temperature came to 60.00 °C.

Molecule `*/C=C/c1ccc(/C=C/[Si](C)(C)c2ccc([Si](*)(C)C)cc2)cc1` (repeat unit) came in with a glass transition temperature of 63.00 °C.

`*/C=C/c1ccc(/C=C/[Si](C)(CCC(F)(F)F)c2cccc([Si](*)(C)CCC(F)(F)F)c2)cc1` (repeat unit): the glass transition temperature is 23.40 °C.

Molecule `*/C=C/c1sc(-c2ccc(-c3ccc(-c4ccc(-c5sc(/C=C/C6=CC(=C(C#N)C#N)C=C(*)O6)c(CCCCCC)c5CCCCCC)s4)s3)s2)c(CCCCCC)c1CCCCCC` (repeat unit) had a glass transition temperature of 134.00 °C.

With `*/C=C/c1sc(-c2ccc(-c3sc(/C=C/C4=CC(=C(C#N)C#N)C=C(*)O4)c(CCCCCC)c3CCCCCC)s2)c(CCCCCC)c1CCCCCC` (repeat unit), the glass transition temperature was found to be 114.00 °C.

The molecule `*C/C=C/C(C)S(*)(=O)=O` (repeat unit) had a glass transition temperature of 71.00 °C.

Take `*CCCCCCCCOc1c(OC)cc(/C=C/c2cc(C(C)C)c(/C=C/c3cc(OC)c(O*)c(OC)c3)cc2C(C)C)cc1OC` (repeat unit): the glass transition temperature is 85.00 °C.

In turn, `*CCN(CCOC(=O)/C=C/c1ccc(/C=C/C(=O)O*)cc1)c1ccc(/N=N/c2ccc([N+](=O)[O-])cc2)cc1` (repeat unit) displayed a glass transition temperature of 120.00 °C.

As for `*CCOCCOCCOC(=O)/C=C/C(=O)NCCCCCCNC(=O)/C=C/C(=O)O*` (repeat unit), the glass transition temperature is 65.00 °C.

On to `*CCOCCOCCOCCOC(=O)/C=C/C(=O)NCCCCCCNC(=O)/C=C/C(=O)O*` (repeat unit), for which the glass transition temperature is 52.00 °C.

`*Oc1ccc(-c2ccc(OC(=O)/C=C/c3ccc(/C=C/C(*)=O)cc3)cc2)cc1` (repeat unit) displayed a glass transition temperature of 243.00 °C.

Take `*c1ccc2c(c1)Sc1cc(-c3sc(/C=C/C4=CC(=C(C#N)C#N)C=C(/C=C/c5sc(*)c(CCCCCC)c5CCCCCC)O4)c(CCCCCC)c3CCCCCC)ccc1N2CCCCCC` (repeat unit): the glass transition temperature was 130.00 °C.

On to `*/C=C/CC*` (repeat unit) [1,4-polybutadiene], for which the glass transition temperature was -91.00 ± 5 °C.

In the case of `*C(F)(F)C1(F)C(F)(F)C(*)(F)C(F)(F)C1(F)F` (repeat unit) [Perfluoropolymer 3], the glass transition temperature came out at 117 ± 0.6 °C.

Consider `*c1ccc(*)cc1` (repeat unit) [Poly(1,4-phenylene)], for which the glass transition temperature stood at 278.18 ± 19 °C.

Molecule `*CC(*)(C)C(=O)OCC` (repeat unit) [Poly(1-(Diethylamino)ethyl methacrylate)] had a glass transition temperature of 20 ± 27 °C.

Regarding `*/C=C/CCC*` (repeat unit) [Poly(1-pentenylene)], the glass transition temperature was -100.08 ± 7 °C.

Take `*CC(*)c1ccc(Cl)cc1Cl` (repeat unit) [Poly(2,4-dichloro styrene) ]: the glass transition temperature was 133 ± 2.6 °C.

Regarding `*CC(*)c1ccc(C)cc1C` (repeat unit) [Poly(2,4-dimethyl styrene) ], the glass transition temperature was determined as 112 ± 0.6 °C.

Consider `*CC(*)c1ccccc1Cl` (repeat unit) [Poly(2-chlorostyrene)], for which the glass transition temperature was 118.92 ± 2.1 °C.

As for `*CC(*)(C)C(=O)OCCO` (repeat unit) [Poly(2-hydroxyethyl methacrylate)], the glass transition temperature is 84.03 ± 10 °C.

Molecule `*CC(*)(C)C(=O)OCC(C)O` (repeat unit) [Poly(2-hydroxypropyl methacrylate)] showed a glass transition temperature of 75.4 ± 1.9 °C.

For the molecule `*CC(*)(C)CC` (repeat unit) [Poly(2-methylbutene)], the glass transition temperature was -11.58 ± 9.3 °C.

`*CC(*)(C)C(=O)OCCc1ccccc1` (repeat unit) [Poly(2-phenylethyl methacrylate)] had a glass transition temperature of 37.42 ± 16 °C.

As for `*CC(*)c1ccc(C)c(C)c1` (repeat unit) [Poly(3,4-dimethyl styrene) ], the glass transition temperature is 111 ± 2.4 °C.

Take `*CC(*)c1ccc(F)cc1` (repeat unit) [Poly(4-fluorostyrene)]: the glass transition temperature amounted to 104 ± 4.9 °C.

In turn, `*CC(*)c1ccc(C(=O)c2ccc(C)cc2)cc1` (repeat unit) [Poly(4-p-toluoylstyrene)] showed a glass transition temperature of 98.92 ± 0.1 °C.

In the case of `*CC(*)C(=O)Nc1ccccc1` (repeat unit) [Poly(N-phenyl acrylamide)], the glass transition temperature was 155.92 ± 5.8 °C.

`*CC(*)n1c2ccccc2c2ccccc21` (repeat unit) [Poly(N-vinyl carbazole)] yielded a glass transition temperature of 150 ± 44 °C.

`*CC(*)C(N)=O` (repeat unit) [Poly(acrylamide)] showed a glass transition temperature of 178.92 ± 20 °C.

`*CC(*)C(=O)O` (repeat unit) [Poly(acrylic acid)] yielded a glass transition temperature of 105 ± 7.3 °C.

Turning to `*CCCCOC(=O)c1ccc(C(=O)O*)cc1` (repeat unit) [Poly(butylene terephthalate)], the glass transition temperature stood at 44.12 ± 6 °C.

`*CC(*)C(=O)OC1CCCCC1` (repeat unit) [Poly(cyclohexyl acrylate)]: the glass transition temperature worked out at 20.42 ± 6.5 °C.

`*CCCCCCCCCC(=O)N*` (repeat unit) [Poly(decano-10-lactam)] showed a glass transition temperature of 42.42 ± 0.8 °C.

Regarding `*CC(CCl)O*` (repeat unit) [Poly(epichlorohydrin)], the glass transition temperature was -22.22 ± 1.5 °C.

In the case of `*CC(*)(Cl)C(=O)OCC` (repeat unit) [Poly(ethyl a-chloroacrylate) ], the glass transition temperature was 92 ± 4.8 °C.

Take `*CC(*)OCC` (repeat unit) [Poly(ethyl vinyl ether)]: the glass transition temperature was -26.58 ± 9.8 °C.

As for `*CCOC(=O)CCC(=O)O*` (repeat unit) [Poly(ethylene succinate)], the glass transition temperature is -8.63 ± 3.5 °C.

On to `*CC(*)CCCCCCC` (repeat unit) [Poly(heptylethylene)], for which the glass transition temperature was -47.58 ± 0.8 °C.

With `*CCCCCCNC(=O)CCCCC(=O)N*` (repeat unit) [Poly(hexamethylene adipamide)], the glass transition temperature worked out at 54.53 ± 5.2 °C.

Regarding `*CCCCCCNC(=O)CCCCCCCC(=O)N*` (repeat unit) [Poly(hexamethylene azelamide)], the glass transition temperature came to 50.58 ± 12 °C.

As for `*CCCCCCNC(=O)c1cccc(C(=O)N*)c1` (repeat unit) [Poly(hexamethylene isophthalamide) ], the glass transition temperature amounted to 129 ± 5.4 °C.

In turn, `*CCCCCCNC(=O)CCCCCCCCC(=O)N*` (repeat unit) [Poly(hexamethylene sebacamide) ] gave a glass transition temperature of 40 ± 4.1 °C.

The molecule `*CC(*)(C#N)C(=O)OCCCCCC` (repeat unit) [Poly(hexyl cyanoacrylate)] had a glass transition temperature of 85.92 ± 0.1 °C.

Turning to `*CC(*)OCCCCCC` (repeat unit) [Poly(hexyl vinyl ether)], the glass transition temperature is -69.58 ± 5.8 °C.

With `*CCCCCCNC(=O)CCCCCCCCCCC(=O)N*` (repeat unit) [Poly(iminohexamethyleneiminododecanedioyl)], the glass transition temperature worked out at 45.92 ± 0.1 °C.

Consider `*CC(*)(C)C` (repeat unit) [Poly(isobutene)], for which the glass transition temperature was -74 ± 3.6 °C.

For the molecule `*CC(*)C(=O)OC` (repeat unit) [Poly(methyl acrylate) ], the glass transition temperature turned out to be 9 ± 2 °C.

Turning to `*CC(*)OC` (repeat unit) [Poly(methyl vinyl ether)], the glass transition temperature was -26.97 ± 3.8 °C.

In the case of `*CC(*)C(=O)OCCCCCCCCC` (repeat unit) [Poly(n-nonyl acrylate) ], the glass transition temperature is -60 ± 17 °C.

Consider `*CC(*)C(=O)OCCCCCCCC` (repeat unit) [Poly(n-octyl acrylate) ], for which the glass transition temperature was -65 ± 0.6 °C.

`*CC(*)C(=O)OCCCCCCCCCCCCCCCCCC` (repeat unit) [Poly(octadecyl acrylate)]: the glass transition temperature was -2.33 ± 57 °C.
